Results: patent publication US20150204881A1, “Biomarkers For Diagnosis Of Diabetes And Monitoring Of Anti-Diabetic Therapy” (Sumitomo Bakelite Co., Ltd., priority 2012, published 2015)

Legend:
db/db mice [1] = test: HbA1c in treated db/db mice; format: in vivo, mouse
db/db mice [2] = test: Plasma N-glycan profiling (MALDI-TOF MS) in insulin detemir- vs vehicle-treated db/db mice; format: in vivo, mouse
Method: A 10 μl aliquot of each plasma sample was spiked with internal standard (700 pmol) and analyzed for N-linked glycans using Ezose Sciences' GLYCANMAP methodology. The samples were denatured and then digested with trypsin, followed by heat-inactivation. The mixture was then treated with PNGase F. After enzymatic release of N-glycans, aliquots were subjected to solid-phase processing using BLOTGLYCO beads. Following capture on the beads, the sialic acid residues were methyl esterified. The glycans were simultaneously released from the beads and labeled, and then aliquots of the recovered materials were spotted onto a MALDI target plate. Steps from initial aliquoting to spotting on the MALDI plate were performed using the fully automated SWEETBLOT technology. MALDI-TOF MS analysis was performed on an ultraflex III mass spectrometer (Bruker Daltonics) in the positive-ion, reflector mode. Each sample from the BLOTGLYCO bead processing step was spotted in quadruplicate, and spectra were obtained in an automated manner using the AutoXecute feature in flexControl software (Bruker Daltonics). Proposed glycan structures were assigned based on molecular weight. These methods have been described previously by Nishimura, Furukawa and Miura (Nishimura et al., Angew Chem. Int. Ed. Engl., 44: 91-96 (2004); Furukawa et al., Anal. Chem., 80: 1094-1101 (2008); Miura et al., Chem.-A Eur. J, 13: 4797-4804 (2007)). Alternatively, standard fluorescent HPLC or capillary electrophoresis methods with 2-AA, 2-AB, or APTS labeling can be used to monitor the glycan levels and changes in glycan patterns.
A further study was undertaken to evaluate the performance of candidate biomarkers discovered using rosiglitazone in mice treated with a diabetes drug having a different mechanism of action. The candidate biomarkers that were identified in Example 1 were evaluated in db/db mice treated with insulin detemir and vehicle.
Plasma samples were analyzed from ten db/db mice at baseline (0 days) and from 20 db/db mice (ten vehicle and ten insulin detemir-treated) at 7, 14, and 21 days. Sample preparation and analysis followed the protocol described in Example 1.
Concentrations of individual glycans in insulin detemir- and vehicle-treated db/db mice were compared at each time-point using the Student's t-test. N-glycans which yielded p-values <0.05 in this analysis were considered significant. Time-dependence was also evaluated for each of the candidate biomarkers by comparing each time-point to baseline.

[3] = db/db mice treated with insulin detemir vs vehicle
[4] = plasma, db/db mice vs vehicle, 7, 14, 21 days

Molecule	Time until HbA1c difference reached p<0.001 significance (db/db mice [1]; first rosiglitazone study, db/db mice vs vehicle) [days]	Changes in HbA1c (db/db mice [1]; insulin-treated db/db mice, compared with rosiglitazone)	Changes in Glycan 540020 (db/db mice [2]; [3])	Changes in O-acetylated N-glycans (db/db mice [2]; [3])	Changes in fucosylated N-glycans (db/db mice [2]; [3])	High mannose glycans (520000, 620000, 720000, 820000) with insulin detemir treatment (db/db mice [2]; db/db mice vs vehicle, significant at Day 7, 14 and 21, lower in magnitude than with rosiglitazone)	Hybrid glycans (430010, 530010, 630010) vs vehicle-treated controls (db/db mice [2]; db/db mice, as early as Day 7)	Direction of Change with Insulin Detemir: High Mannose glycan 520000 (db/db mice [2]; [4])	Direction of Change with Insulin Detemir: High Mannose glycan 620000 (db/db mice [2]; [4])	Direction of Change with Insulin Detemir: High Mannose glycan 720000 (db/db mice [2]; [4])	Direction of Change with Insulin Detemir: High Mannose glycan 820000 (db/db mice [2]; [4])	Direction of Change with Insulin Detemir: Hybrid glycan 430010 (db/db mice [2]; [4])	Direction of Change with Insulin Detemir: Hybrid glycan 530010 (db/db mice [2]; [4])	Direction of Change with Insulin Detemir: Hybrid glycan 630010 (db/db mice [2]; [4])
CN(CCOc1ccc(CC2SC(=O)NC2=O)cc1)c1ccccn1 (centres unmarked) [Rosiglitazone]	21	–	–	–	–	–	–	–	–	–	–	–	–	–
insulin detemir	–	more subtle changes	no significant changes	no significant changes	no significant changes	lower levels	significant decreases	Decreased	Decreased	Decreased	Decreased	Decreased	Decreased	Decreased
